Experimental data taken from patent US11419862B2, “Quinoline derivative for treatment of nasopharyngeal carcinoma” (CHIA TAI TIANQING PHARMACEUTICAL GROUP CO., LTD., priority 2018, dated 2022).
Counter-ions that a name gives are not always drawn.

Tested on: nasopharyngeal carcinoma
Experiment: Efficacy on nasopharyngeal carcinoma: patient case reports treated orally with capsules of the compound of Example 1
Assay type: in vivo, human
Parameters: key to evaluation according to RECIST 1.1: CR: complete remission, which means that target lesions of tumors have disappeared and no new lesions appear which is maintained for at least 4 weeks; PR: partial remission, which means 30% or more decrease in the sum of the diameters of target lesions of tumors than the baseline level, which is maintained for at least 4 weeks; PD: the progression of disease, which means 20% or more increase in the diameters of target lesions of tumors than the baseline level; SD: stable disease, which means the sum of diameters of all target leisions neither shrink to qualify for PR nor sufficient increase to qulify for PD
Method: During or after radiotherapy, the patients are treated with the capsules of the compound of Example 1 at 12 mg qd. The administration is continuously performed for 2 weeks and rest for 1 week, followed by continuously administrating for 2 weeks and resting for 1 week as a cycle. The target lesions are regularly evaluated, and the treatment regimen is terminated according to the evaluation results.
Subsequently, the patient took orally the capsules of 12 mg of the compound of Example 1 once per day for treatment (continuously administrating for 2 weeks and resting for 1 week as a treatment cycle). […] After 4 cycles of treatment, evaluated as PR according to RECIST 1.1, and the sum of the target lesions was 10 mm, which was reduced by 9 mm from the baseline. After 8 cycles of treatment, the sum of the target lesions was 9 mm, which was reduced by 10 mm from the baseline.
From Mar. 2, 2017, the patient started to take orally the capsules of 12 mg of the compound of Example 1 once per day for treatment (continuously administrating for 2 weeks and resting for 1 week as a treatment cycle). On Apr. […] The treatment with the capsules of the compound of Example 1 was continued.
Three months later, the patient started to take orally the capsules of 12 mg of the compound of Example 1 once per day for treatment (continuously administrating for 2 weeks and resting for 1 week as a treatment cycle). […] The treatment with the capsules of the compound of Example 1 was continued.

[1] = Example 4, patient, 12 mg once per day orally, after 2 cycles
[2] = Example 4, patient, 12 mg once per day orally, after 4 cycles
[3] = Example 4, patient, 12 mg once per day orally, after 8 cycles
[4] = Example 5, patient, 12 mg once per day orally, after 2 cycles
[5] = Example 5, patient, 12 mg once per day orally, after 4 cycles
[6] = Example 5, patient, 12 mg once per day orally, after 6 cycles
[7] = Example 5, patient, 12 mg once per day orally, after 12 cycles
[8] = Example 5, patient, 12 mg once per day orally, after 16 cycles
[9] = Example 6, patient, 12 mg once per day orally, after 2 cycles
[10] = Example 6, patient, 12 mg once per day orally, after 4 cycles

COc1cc2c(Oc3ccc4[nH]c(C)cc4c3F)ccnc2cc1OCC1(N)CC1 [Example 1, 1-[[[4-fluoro-2-methyl-1H-indol-5-yl)oxy-6-methoxyquinolin-7-yl]oxy]methyl]cyclopropylamine dihydrochloride]
evaluation according to RECIST 1.1 (Example 4, patient, 12 mg once per day orally, 2 weeks on/1 week off, after 2 cycles): PR (partial remission, which means 30% or more decrease in the sum of the diameters of target lesions of tumors than the baseline level, which is maintained for at least 4 weeks) | reduction of sum of the target lesions from the baseline [1]: 7 mm | sum of the target lesions [1]: 12 mm | evaluation according to RECIST 1.1 [2]: PR (partial remission, which means 30% or more decrease in the sum of the diameters of target lesions of tumors than the baseline level, which is maintained for at least 4 weeks) | reduction of sum of the target lesions from the baseline [2]: 9 mm | sum of the target lesions [2]: 10 mm | reduction of sum of the target lesions from the baseline [3]: 10 mm | sum of the target lesions [3]: 9 mm | adverse reaction during the administration (Example 4, patient, 12 mg once per day orally, relieved after medication and dosage reduction): Grade 3 hypertension | evaluation according to RECIST 1.1 (Example 5, patient, 12 mg once per day orally, 2 weeks on/1 week off, after 2 cycles): PR (partial remission, which means 30% or more decrease in the sum of the diameters of target lesions of tumors than the baseline level, which is maintained for at least 4 weeks) | reduction of sum of the target lesions from the baseline [4]: 17 mm | sum of the target lesions [4]: 30 mm | evaluation according to RECIST 1.1 [5]: PR (partial remission, which means 30% or more decrease in the sum of the diameters of target lesions of tumors than the baseline level, which is maintained for at least 4 weeks) | reduction of sum of the target lesions from the baseline [5]: 19 mm | sum of the target lesions [5]: 28 mm | evaluation according to RECIST 1.1 [6]: PR (partial remission, which means 30% or more decrease in the sum of the diameters of target lesions of tumors than the baseline level, which is maintained for at least 4 weeks) | reduction of sum of the target lesions from the baseline [6]: 23 mm | sum of the target lesions [6]: 24 mm | evaluation according to RECIST 1.1 [7]: PR (partial remission, which means 30% or more decrease in the sum of the diameters of target lesions of tumors than the baseline level, which is maintained for at least 4 weeks) | reduction of sum of the target lesions from the baseline [7]: 23 mm | sum of the target lesions [7]: 24 mm | evaluation according to RECIST 1.1 [8]: PR (partial remission, which means 30% or more decrease in the sum of the diameters of target lesions of tumors than the baseline level, which is maintained for at least 4 weeks) | reduction of sum of the target lesions from the baseline [8]: 24 mm | sum of the target lesions [8]: 23 mm | evaluation according to RECIST 1.1 (Example 6, patient, 12 mg once per day orally, 2 weeks on/1 week off, after 2 cycles): SD | reduction of sum of the target lesions from the baseline [9]: 18 mm | sum of the target lesions [9]: 47 mm | evaluation according to RECIST 1.1 [10]: PR (partial remission, which means 30% or more decrease in the sum of the diameters of target lesions of tumors than the baseline level, which is maintained for at least 4 weeks) | reduction of sum of the target lesions from the baseline [10]: 23 mm | sum of the target lesions [10]: 42 mm | adverse reaction during the administration (Example 6, patient, alleviated by antihypertensive drugs and dose reduction to 10 mg and 8 mg): Grades 2 and 3 hypertension
